Experimental data from patent US12714706B2, “Methods of treating small cell lung cancer with lurbinectedin formulations” (PHARMA MAR, S.A., priority 2019, dated 2026).
Converted amounts (≈) assume the structure as drawn. “And” between values parts separate entries of the source, which are not always exact repeats. Equal values may be shown once.

How the values were obtained:
[1] = Lurbinectedin plus irinotecan trial: pharmacokinetics of lurbinectedin, irinotecan and SN-38; details: combination: lurbinectedin 1.0-2.4 mg/m2 + irinotecan 75 mg/m2; n=39; mean (SD)
SCLC [2] = experiment: Phase 2 trial of lurbinectedin monotherapy in SCLC: antitumor activity (ORR, DOR, PFS, OS; RECIST v1.1); assay type: in vivo, human
SCLC [3] = experiment: Post-hoc exploratory analysis of response in SCLC patients who had previously received immunotherapy; assay type: in vivo, human; details: for Lurbinectedin treatment: OS / Lurbinectedin treatment: DoR / Lurbinectedin treatment: PFS: individual SCLC patients with prior immunotherapy
Excerpt: Post-hoc exploratory analysis was done on the response in patients who had previously received immunotherapy (n=8).

advanced solid tumors = experiment: Lurbinectedin plus irinotecan trial: efficacy per tumor type (RECIST v1.1, PFS, OS); assay type: in vivo, human; details: all doses
Excerpt: Secondary outcome measures included safety evaluation, peak plasma concentration (Cmax), area-under-the plasma concentration versus time curve (AUC), volume of distribution based on the terminal half-life (Vz), volume of distribution at steady state (Vss), clearance (CL), half-life (t½), evaluation of antitumor response (RECIST v1.1, start of treatment until PD, other antitumor therapy, death or until 12 months after the inclusion of the last evaluable patient in the study (end of study), whichever occurs first), progression-free survival (from the date of first infusion of study treatment to the date of progression or death or until 12 months after end of study, whichever occurs first), and overall survival (from the date of first infusion to study treatment to the date or death or until 12 months after end of study, whichever occurs first).
Encouraging activity has been observed in patients with SOLO, including some cases as third line treatment. Signals of activity were also observed in endometrial carcinoma and soft tissue sarcoma (STS) and glioblastoma (GBM). Consequently, a Phase II expansion at the RD to further explore efficacy and safety in SOLO, GBM, STS, and endometrial carcinoma. A total of […] patients were treated at the RD, including n=15 SOLO, n=11 endometrial cancer, n=10 STS, and n=20 GBM patients.

patients = details: previous analysis, dose based on body surface area; cited from earlier work
[4] = chemotherapy-free interval 90 days or longer (sensitive)
[5] = resistant disease, listed as Lurbinectedin

COc1ccc2[nH]c3c(c2c1)CCN[C@]31CS[C@@H]2c3c(OC(C)=O)c(C)c4c(c3[C@H](COC1=O)N1[C@@H]2[C@H]2c3c(cc(C)c(OC)c3O)C[C@@H]([C@@H]1O)N2C)OCO4 [lurbinectedin, Lurbinectedin]
HL [1]: 44.2 (22.4) h
Overall response rate (CR + PR) (SCLC [2]; IRC assessment, overall (n = 105)): 30.5%
Duration of response, median (SCLC [2]; IRC assessment, resistant disease (CTFI <90 days)): 4.8 months
Overall response rate (CR + PR) (SCLC [2]; IRC assessment, resistant disease (CTFI <90 days, n = 45)): 13.3%
Duration of response, median (SCLC [2]; IRC assessment, sensitive disease (CTFI ≥90 days)): 5.3 months
Overall response rate (CR + PR) (SCLC [2]; IRC assessment, sensitive disease (CTFI ≥90 days, n = 60)): 43.3%
Duration of response, median (SCLC [2]; Investigator assessment, overall): 5.3 months
Duration of response, median (SCLC [2]; Investigator assessment, resistant disease (CTFI <90 days)): 4.7 months
Duration of response, median (SCLC [2]; Investigator assessment, sensitive disease (CTFI ≥90 days)): 6.2 months
Overall response rate (CR + PR) (SCLC [2]; Investigator assessment, sensitive disease (CTFI ≥90 days, n = 60)): 45.0%
Median progression-free survival (SCLC [2]; Investigator-assessed, overall population): 3.5 months
Patients alive at 1 year after the first dose (SCLC [2]; chemotherapy-free interval 90 days or longer (n = 60)): 48%
Median overall survival (SCLC [2]; [4]): 11.9 months
Median progression-free survival (SCLC [2]; [4]): 4.6 months
Median overall survival (SCLC [2]; overall population): 9.3 months
Median overall survival of patients with initial objective response (post-hoc) (SCLC [2]; responders with sensitive disease): 15.8 months
solubility (physchem; sodium acetate buffer, pH 3, aqueous buffer): 950 µg/mL (≈ 1210 µM)
solubility (physchem; sodium acetate buffer, pH 4, aqueous buffer): 940 µg/mL (≈ 1200 µM)
solubility (physchem; sodium acetate buffer, pH 5, aqueous buffer): 30 µg/mL (≈ 38.2 µM)
solubility (physchem; sodium citrate buffer, pH 3, aqueous buffer): 940 µg/mL (≈ 1200 µM)
solubility (physchem; sodium citrate buffer, pH 4, aqueous buffer): 930 µg/mL (≈ 1180 µM)
solubility (physchem; sodium citrate buffer, pH 5, aqueous buffer): 500 µg/mL (≈ 637 µM)
solubility (physchem; sodium lactate buffer, pH 3, aqueous buffer): 940 µg/mL (≈ 1200 µM)
solubility (physchem; sodium lactate buffer, pH 4, aqueous buffer): 900 µg/mL (≈ 1150 µM)
solubility (physchem; sodium lactate buffer, pH 5, aqueous buffer): 30 µg/mL (≈ 38.2 µM)
solubility (physchem; sodium succinate buffer, pH 3, aqueous buffer): 960 µg/mL (≈ 1220 µM)
solubility (physchem; sodium succinate buffer, pH 4, aqueous buffer): 970 µg/mL (≈ 1240 µM)
solubility (physchem; sodium succinate buffer, pH 5, aqueous buffer): 40 µg/mL (≈ 51 µM)
Lurbinectedin treatment: OS (SCLC [3]; resistant disease): 12.6 months
Lurbinectedin treatment: DoR (SCLC [3]; [5]): 5.6 months and 5.3 months and 5.1 months
Lurbinectedin treatment: OS (SCLC [3]; [5]): 12.0 months and 4.9 months and 14.9 months and 6.9+ months
Lurbinectedin treatment: PFS (SCLC [3]; [5]): 6.0 months and 1.3 months and 8.3 months and 6.9 months and 6.3 months
Lurbinectedin treatment: DoR (SCLC [3]; sensitive disease): 6.4 months and 2.8 months
Lurbinectedin treatment: OS (SCLC [3]; sensitive disease): 9.3 months and 10.8 months and 2.3 months
Lurbinectedin treatment: PFS (SCLC [3]; sensitive disease): 7.6 months and 4.7 months and 1.3 months
Response to single-agent lurbinectedin in patients who had previously received immunotherapy (SCLC [3]; post-hoc, n=8): trend for a better response
CBR (ORR + SD >4 mo) (advanced solid tumors; Endometrial (n = 10 evaluable)): 60%
DCR (ORR + SD) (advanced solid tumors; Endometrial (n = 10 evaluable)): 100%
Median DoR (advanced solid tumors; Endometrial (n = 10 evaluable)): 4.6 mo
Median PFS (advanced solid tumors; Endometrial (n = 10 evaluable)): 7.1 mo
ORR* (PR) (advanced solid tumors; Endometrial (n = 10 evaluable)): 3 (30) n(%)
PFS rate at 6 mo (advanced solid tumors; Endometrial (n = 10 evaluable)): 50%
CBR (ORR + SD >4 mo) (advanced solid tumors; GBM (n = 16 evaluable)): 18.8%
DCR (ORR + SD) (advanced solid tumors; GBM (n = 16 evaluable)): 43.8%
Median PFS (advanced solid tumors; GBM (n = 16 evaluable)): 1.4 mo
ORR* (PR) (advanced solid tumors; GBM (n = 16 evaluable)): 1 (6.3) n(%)
PFS rate at 6 mo (advanced solid tumors; GBM (n = 16 evaluable)): 7.1%
CBR (ORR + SD >4 mo) (advanced solid tumors; SCLC (n = 13 evaluable)): 76.9%
DCR (ORR + SD) (advanced solid tumors; SCLC (n = 13 evaluable)): 84.6%
Median DoR (advanced solid tumors; SCLC (n = 13 evaluable)): 4.6 mo
Median PFS (advanced solid tumors; SCLC (n = 13 evaluable)): 4.3 mo
ORR* (PR) (advanced solid tumors; SCLC (n = 13 evaluable)): 9 (69.2) n(%)
PFS rate at 6 mo (advanced solid tumors; SCLC (n = 13 evaluable)): 36.3%
CBR (ORR + SD >4 mo) (advanced solid tumors; STS (n = 10 evaluable)): 40%
DCR (ORR + SD) (advanced solid tumors; STS (n = 10 evaluable)): 80%
Median PFS (advanced solid tumors; STS (n = 10 evaluable)): 2.6 mo
ORR* (PR) (advanced solid tumors; STS (n = 10 evaluable)): 0 n(%)
PFS rate at 6 mo (advanced solid tumors; STS (n = 10 evaluable)): 33.8%
Incidence of febrile neutropenia (patients): lower than 10%
